Read-outs that look alike come from different tables or passages of the source.
Key:
[1] = in vivo
colorectal cancer = conditions: 5-FU chemotherapy regimens, advanced-stage CRC; cited from earlier work
[2] = cited from earlier work
clinical = conditions: human, in vivo, po; for half-life: T1/2
phosphorylated EGFR = conditions: 25 mg EKB-569 with full-dose Irinotecan and infusional 5-FU; cited from earlier work
[3] = p.o., continuous schedule, cited from earlier work
[4] = Plasma pharmacokinetics of EKB-569 and its N-desmethyl metabolite at the MTD

SMILES: O=c1[nH]cc(F)c(=O)[nH]1 [5-FU, 5-fluorouracil]
- increase in AUC[0-t] in combination with EKB-569 versus capecitabine alone ([1]; human): 88%
- increase in AUC[0-∞] in combination with EKB-569 versus capecitabine alone ([1]; human): 81%
- T1/2 ([1]; human, po): 0.73 ± 0.17 h
- Tmax ([1]; human, po): 2.00 (0.50–4.00) h
- objective response rate (colorectal cancer): ~ 20%
- increase in 5-FU exposure with continual administration of capecitabine ([2]; alone or with other anticancer agents, from no increase upward): ≤ 83%
- interpatient variability of 5-FU AUC ([2]; continued daily dosing of capecitabine, day 14): 85%
- AUC of 5-FU on day 14 higher than after a single dose ([2]; continued daily dosing of capecitabine): 34%

SMILES: C[C@H]1O[C@@H](n2cc(F)c(=O)[nH]c2=O)[C@H](O)[C@@H]1O [5′-DFUR, 5′-deoxy-5-fluorouridine]
- increase in AUC[0-t] in combination with EKB-569 versus capecitabine alone ([1]; human): 28%
- increase in AUC[0-∞] in combination with EKB-569 versus capecitabine alone ([1]; human): 31%
- half-life (clinical): 0.72 ± 0.14 h
- Tmax (clinical): 2 h

SMILES: CCOc1cc2ncc(C#N)c(Nc3ccc(F)c(Cl)c3)c2cc1NC(=O)/C=C/CN(C)C [EKB-569]
- patients who required a dose reduction of the agent at the MTD (EKB-569 50 mg daily and capecitabine 1,000 mg/m^2 twice daily): four
- MTD of EKB-569 combined with capecitabine (daily, p.o., 21-day cycle, with capecitabine 1,000 mg/m^2 twice daily): 50 mg
- inhibition of phosphorylated EGFR and downstream signaling pathways in skin and tumor samples (phosphorylated EGFR): complete inhibition
- well-tolerated dose, single agent ([3]; patients with advanced solid tumors): up to 75 mg per day
- principal toxicities, single agent [3]: diarrhea and skin rash
- Cl/F (oral clearance) ([4]; day 8, 50 mg EKB-569 p.o. daily with 1,000 mg/m^2 capecitabine, mean ± SD): 57 ± 24 L/h
- coefficient of variation values for Cmax and AUC (intersubject variability) ([4]; day 8, MTD): < 40%
- half-life ([4]; human, plasma, po): 16.6 ± 3.7 h

SMILES: CCOc1cc2ncc(C#N)c(Nc3ccc(F)c(Cl)c3)c2cc1NC(=O)/C=C/CNC [N-desmethyl EKB-569]
- AUC ([4]; human, in vivo, po): 64.4 ± 43.3 ng·h/mL
- Cmax ([4]; human, in vivo, po): 4.2 ± 3.2 ng/mL
- T1/2 ([4]; human, in vivo, po): 24.1 ± 9.2 h
- Tmax ([4]; human, in vivo, po): 3.5 (2–6) h

SMILES: CCCCCOC(=O)Nc1nc(=O)n([C@@H]2O[C@H](C)[C@@H](O)[C@H]2O)cc1F [capecitabine, reference compound]
- dose reductions of the agent secondary to diarrhea (human, in vivo): 60%
- MTD of capecitabine combined with EKB-569 (twice daily for 14 days of a 21-day cycle, with EKB-569 50 mg daily): 1,000 mg/m^2
- mean terminal half-life ([1]; human): half an hour
- time at which Cmax was observed after p.o. administration ([1]; human, po): 1 h
- difference of pharmacokinetic variables, monotherapy vs combination therapy [1]: no statistically significant difference
- half-life (clinical): 0.52 ± 0.17 h
- Tmax (clinical): 1 h

Source: paper PMC3086427 (Clinical cancer research : an official journal of the …, 2008)
